Assays:
[1] = Microbubble growth on heating above the phospholipid chain melting temperature; assay type: physicochemical; conditions: microbubbles made at 7° C., heated to 37° C.
Source text: Use of a gel-phase lipid is required to prevent gas from escaping the microbubble. […] Indeed, these microbubbles expanded so as to fill the capillary in which they were contained and therefore became nonspherical, taking on the geometry of the capillary itself. […] Such growth may have resulted from simple expansion of individual microbubbles or by inward diffusion of gas.

[2] = Survival of microbubbles made at different processing temperatures; assay type: physicochemical; conditions: formulations included 5 mol % PEG6000MS; for survival of microbubbles, 7° C.: processing temperature 7° C.; for survival of microbubbles, 37° C.: processing temperature 37° C.; for survival of microbubbles, 60° C.: processing temperature 60° C.
Source text: Table 1 lists three phospholipid species, along with their gel transition temperatures, and the results of experiments attempting to make stable microbubbles with these species at different temperatures. All microbubble formulations included 5 mol % PEG6000MS.
In all cases in which the processing temperature was below the gel transition temperature, irrespective of the phospholipid identity, microbubble synthesis was feasible. Conversely, microbubble synthesis at temperatures greater than the gel transition temperature was not feasible, regardless of which phospholipid was used.

SMILES	microbubble growth upon heating [1]	survival of microbubbles, 7° C. [2]	survival of microbubbles, 37° C. [2]	survival of microbubbles, 60° C. [2]
CCCCCCCCCCCCCC(=O)OC[C@H](COP(=O)([O-])OCC[N+](C)(C)C)OC(=O)CCCCCCCCCCCCC [DMPC, dimyristoylphosphatidylcholine]	grew spontaneously	Yes	No	No
CCCCCCCCCCCCCCCCCC(=O)OC[C@H](COP(=O)([O-])OCC[N+](C)(C)C)OC(=O)CCCCCCCCCCCCCCCCC [DSPC, 1,2-distearoyl-sn-glycero-3-phosphocholine]	No such growth was observed	Yes	Yes	No

From patent US11389395B2, “Encapsulation of microbubbles within the aqueous core of microcapsules” (DREXEL UNIVERSITY, priority 2009, dated 2022)
